Reference: patent US7741275B2, “Agents and use thereof” (Lipopeptide AB, priority 2004, dated 2010)

Key:
[1] = tested on: hCAP18 transcription; conditions: via vitamin D receptor binding to response element in hCAP18 promoter; cited from earlier work
[2] = tested on: HaCaT cells; assay: Pertussis toxin assay (LL-37 induced proliferation); format: cell-based, human; conditions: pretreatment with pertussis toxin 20 ng/ml 24 h before LL-37 (5 or 10 μg/ml); not shown
Procedure: To assess the involvement of FPRL1 in mediating the stimulation of epithelial cell proliferation induced by hCAP18/LL-37, HaCaT cells were treated with the G-protein-coupled receptor inhibitor pertussis toxin. Cells were preincubated with pertussis toxin (Sigma-Aldrich, Switzerland) 24 h before the LL-37 treatment in a final toxin concentration of 20 ng/ml. Medium was changed 48 hours after cell seeding and the HaCaT cells were treated with 100 μl of medium (DMEM+5% FCS and PEST) containing synthetic biologically active LL-37 peptide at 5 or 10 μg per ml respectively. Cells treated with only DMEM+5% FCS and PEST served as control.

[3] = tested on: IAP-2 mRNA; assay: IAP-2 expression by RT-PCR; format: cell-based, human
Procedure: HEKn cells were treated with 2 μM LL-37 and harvested at different time points after stimulation. RNA from these cells was reverse transcribed and the expression of IAP-2 was determined by real-time PCR. The transcription level of IAP-2 for each time point is shown normalized against 18S RNA and relative to the untreated cells (control set as 1 for each time point).
HEKn cells were treated with or without the specific COX-2 inhibitor SC-791 (25 nM) and further incubated for 6 hours with or without LL-37 (2 μM).
(§1) Total RNA was isolated from cells after different treatments according to the manufacturer's directions by using the Quiagen RNasy kit (Operon Biotechnologies, Cologne, Germany). Reverse transcription was performed with a first-strand synthesis kit (Amershan Biosciences)

[4] = tested on: hCAP18 transcription; assay: Initial studies on small-molecule control of hCAP18 transcription; format: cell-based, human
Text: Since thus small molecules can control the expression of hCAP18, it is meaningful to systematically screen for inhibitory compounds. Initial studies have shown that estrogen and some of its metabolites have no effect. […] Based on these findings, antagonists to vitamin D, such as ZK159222 (Schering A G), and TEI-9647 (Tejin Institute for Medical Research, Tokyo), and antagonists to vitamin A such as AGN193109 (Allergen Pharmaceuticals), are potential agents for use in the methods of the invention.

[5] = tested on: HaCaT cells; assay: LL-37 peptide treatment of epithelial cells, [3H]-Thymidine incorporation; format: cell-based, human; conditions: 5% fetal calf serum, LL-37 10 μg/ml, vs non treated control
Procedure: A spontaneously immortalised human keratinocyte cell line (HaCaT)^19 was cultured in DMEM (Dulbecco's modified Eagle's medium, Gibco BRL, Life Technologies, Scotland) supplemented with 10% FCS (fetal calf serum, Hy-Clone, Boule Nordic AB Huddinge, Sweden) and antibiotics (PEST=penicillin 50 U/l and streptomycin […], Gibco BRL). Cells were harvested at 70% confluence and seeded in 96-well plates, 2000 cells in 100 μl medium (DMEM+10% FCS and PEST). After 12 hours, medium was changed to serum free medium (DMEM+PEST) and cells were synchronized in G0/G1 by serum starvation for 72 hours and then treated with 100 μl of medium (DMEM+5% FCS+PEST) containing synthetic biologically active LL-37 peptide at 10 μg per ml. Cells treated with only DMEM+5% FCS and PEST served as control. The experiments were performed in quadruplicates. Cell proliferation was evaluated by [^3H]-Thymidine incorporation. Cells were treated with 1 μCi/well of [^3H]-Thymidine (20.00 Ci/mmol, Perkin Elmer Life Sciences Inc. Boston, Mass.) during 12 hours and harvested (Harvester 96, Tomtec, Orage, Conn.) onto a glass fiber filter (Wallac Oy Turku, Finland). The incorporation of [^3H]-Thymidine was determined using a liquid scintillation counter (Microbeta Pluss, Wallac Sveriges AB). The experiment was repeated twice in 6 replicates.

[6] = tested on: ERK1/2; assay: Assay of phosphorylated ERK1/2 in LL-37 treated HaCaT cells; format: cell-based, human; conditions: LL-37 10 μg/ml, Western blot
Procedure: HaCaT cells were seeded at 10% confluence and kept in DMEM with 0.2% FCS for 36 hours. For the next 48 hours, cells were cultured in DMEM with 1% or 5% FCS respectively, and in presence or absence of LL-37 at 10 μg/ml, with daily changes of medium. EGF at 10 ng/ml served as positive control. The expression of phosphorylated ERK 1/2 was evaluated by Western blot analysis with a mouse monoclonal antibody (Cell Signaling Technology, Beverly Mass.).

[7] = tested on: HaCaT and HEKn cells; format: cell-based
Procedure: (§2) 25,000 cells/well were plated in 6-well plate culture dishes. […], cells were treated with 0, 0.23, 0.46, 0.69, 0.9, 1.15, 2.3, 4.6 and 11.5 μM LL-37. Each treatment was performed in triplicate. The peptide was diluted in medium (DMEM 5% FCS to HaCaT cells and Epilife basal Medium supplemented with 0.1% FCS to HEKn cells). The cells were treated during a total time of 24 h. After LL-37 stimulation, the topoisomerase I inhibitor camptothecin (CAM) (Sigma Chemical Co., St. Luis, Mo.) in dimethylsulfoxide was added to the cells to a final 6 μM concentration. Cells were further incubated for 24 h before analysis.
Two apoptotic parameters, the loss of the membrane integrity and DNA decrease were evaluated by flow cytometry.
Evaluation of Membrane integrity: After stimulation with LL-37, and treatment with CAM, cells were harvested by trypsinization. The cells were then washed in cold Dulbecco's phosphate-buffered saline (PBS) and counted with a haemocytometer (Hausser Scientific, Horsham, Pa.). Cell density was adjusted to 1×10^6 cells/ml in PBS. Apoptosis was detected by staining with propidium iodide and YO-PRO-1 dye (Molecular Probes, Eugene, Oreg.). Stained cells were analyzed on a FACScan (Beckton-Dickinson, San Jose, Calif.). Cells were gated for analysis on the basis of the forward (FSC) and side light scatter characteristics (SSC). Analysis of cells expressing YO-PRO and propidium iodide (PI) was done using Cell Quest software (Becton Dickinson), which provided percentages of YO-PRO and PI-positive cells. Cells that stained green with YO-PRO were considered apoptotic. Cells that stained also red, with propidium iodide, were necrotic. Live, viable cells take up little or no dye.
Analysis of DNA content by flow cytometry. The PI/RNase staining buffer (BectonDickinson) was used for this analysis. Trypsinized cells were fixed in cold 70% (v/v) ethanol, and stored until its use at 4° C. The DNA content was measured through incorporation of propidium iodide into DNA. Fluorometric analysis was performed using a FACScan flow cytometer (Becton and Dickinson, Mountain View, Calif., USA). FSC (forward light scatter) and SSC (side light scatter) of particles were simultaneously measured to determine the size and the granularity of cells. The red fluorescence of PI stained nuclei was detected in the FL-4 window (600 nm band pass filter and 35 nm bandwidth). The intensity of fluorescence was proportional to the cellular DNA content. Each histogram was divided into two parts: (1) the M1 area representing asynchronous, non-apoptotic, live cells (cells in G1,S and G2 phases with DNA content equal to 2n to 4N); and (2) the M2 area representing apoptotic cells with a smaller quantity of DNA in comparison to living cells.

[8] = tested on: Caspase-3; assay: Caspase-3 activity assay; format: cell-based, human
Procedure: as §2
Caspase-3 enzymatic activity was estimated using the fluorometric substrate VDVAD-AMC (100 μM) and DEVD-AMC (50 μM) as previously described.

[9] = tested on: COX-2 mRNA; assay: COX-2 expression by RT-PCR; format: cell-based, human; conditions: HEKn cells, 2.3 μM LL-37
Procedure: HEKn cells were treated with 2 μM LL-37 and harvested at 6, 12 and 24 hours after stimulation. Untreated cells were used as a control in each time point (light grey columns). RNA from these cells was reverse transcribed and the relative expression of COX-2 with respect to the control was determined by qPCR as above.
as §1

[10] = Antibacterial assay of synthetic LL-37; conditions: synthetic LL-37 peptide
Text: LL-37 peptide was synthesised and purified by HPLC to a purity of 98% (PolyPeptide Laboratories A/S, Hillerød, Denmark). Biological activity of the peptide was confirmed in an antibacterial assay^18.

vitamin D
induction of hCAP18 transcription [1]: strongest inducer of hCAP18 transcription

pertussis toxin
suppression of proliferation of HaCaT cells [2]: approximately 50%

NS(=O)(=O)c1ccc(-c2c(-c3ccccc3)noc2C(F)F)cc1 [SC-791]
LL-37 induced increase of IAP-2 mRNA after COX-2 inhibition ([3]; HEKn cells pretreated 12 h with 25 nM SC-791, then 2 μM LL-37): did not increase the IAP-2 mRNA levels

Vitamin A
hCAP18 transcription ([4]; breast cancer cell line ZR-75-1): stimulates transcription
hCAP18 transcription ([4]; skin keratinocytes): inhibits the transcription

estrogen
effect on hCAP18 expression ([4]; initial studies, cells not given): no effect

LL-37: synthetic, biologically active C-terminal 37 amino acid peptide of human cathelicidin hCAP18
cell proliferation ([3H]-Thymidine incorporation) [5]: significant increase in cell proliferation
activation of ERK1/2 [6]: no significant activation
amount of apoptotic cells ([7]; 24 h with LL-37 alone or simultaneously with LL-37 and CAM, data not shown): not change in the amount of apoptotic cells
inhibition of CAM induced apoptosis ([7]; LL-37 0.23 μM up to 2,3 μM for 24 hours before CAM 6 μM 24 h, HEKn and HaCaT cells): inhibited both DNA fragmentation and loss of membrane permeability
cell death ([7]; LL-37 4.6 μM and 11.5 μM, 24 hours before CAM, non-apoptotic mechanisms): caused cell death
cytotoxicity (increased fraction of necrotic but not apoptotic cells) ([7]; LL-37 4.6 and 11.5 μM, alone or simultaneous with CAM): cytotoxic
effect on camptothecin-induced caspase activation ([8]; pre-treatment with 2.3 μM LL-37): decreased camptothencin-induced caspase activation
IAP-2 mRNA ([3]; HEKn cells, 2.3 μM LL-37, from 6 hours to 12 hours after stimulation): increased IAP-2 mRNA
c-IAP-2 levels ([3]; HEKn cells, LL-37 below 2.3 μM, data not shown): did not affect the c-IAP-2 levels
COX-2 mRNA levels [9]: time-dependent increase in mRNA levels
time of highest COX-2 mRNA levels [9]: 12 h
biological activity in antibacterial assay [10]: confirmed

CC[C@@]1(O)C(=O)OCc2c1cc1n(c2=O)Cc2cc3ccccc3nc2-1 [CAM, camptothecin]
induction of apoptosis (membrane integrity, DNA profile) ([7]; 6 μM CAM, 24 hours, HaCaT and keratinocytes): morphological changes characteristic of apoptosis
time of peak caspase activity ([8]; keratinocytes, CAM treatment): 24 h
caspase activity ([8]; keratinocytes, within the first 12 hours of CAM treatment): significantly increased
